Laboratory results as given in ChEMBL document CHEMBL1128316, “Alkane-6,8-diol: inhibitor of tumor promotion in two-stage carcinogenesis in mouse skin” (1995).

How the values were obtained:
[1] = test system: Mus musculus; assay: Inhibition of TPA-induced inflammatory ear edema in mice(compound was applied 30 min before TPA […],Ear thickness was determined 6 hr after TPA treatment); format: functional
[2] = Inhibitory ratio at 1.0 mg/ear; format: functional

| Compound | ID50 [1] [mg ear-1] | Ratio [2] |
| --- | --- | --- |
| CCCCCCCCCCCCCCCCCCCC(O)CC(O)CCCCC (stereo unspecified) | 0.5 | <82 |
| CCCCCCCC(O)CC(O)CCCCC (stereo unspecified) |  | 23 |
| CCCCCCCCCCCCCCCCCCCCCC(O)CC(O)CCCCC (stereo unspecified) | 0.4 | <85 |
| C[C@]12CCC(=O)C=C1CCC1[C@@H]2[C@@H](O)C[C@@]2(C)[C@H]1CC[C@]2(O)C(=O)CO (single isomer, unassigned) [HYDROCORTISONE] | 0.03 | <99 |
| COc1ccc2c(c1)c(CC(=O)O)c(C)n2C(=O)c1ccc(Cl)cc1 [INDOMETHACIN] | 0.3 | <96 |
| O=c1c(O)c(-c2ccc(O)c(O)c2)oc2cc(O)cc(O)c12 [QUERCETIN] | 1.6 | <40 |
